Source: patent publication US20250082700A1, “METHODS AND COMPOSITIONS OF TREATING BIOLFILM-RELATED DISEASES” (UNIVERSITY OF ROCHESTER, priority 2022, published 2025)
Ends that are not written are not given here.

What was measured:
[1] = test system: C. albicans from 1 representative S-ECC child; test: Inhibition of C. albicans clinical isolate by plantaricin (MIC); assay type: cell-based, Candida albicans; conditions: clear culture plated, additional 48 hours
Protocol: (§1) Bacteriocins, antimicrobial molecules, produced by L. plantarum are known as plantaricins. Peptide plantaricin-149 (acetate) powers (Creative Peptides, Shirley, USA) were dissolved in ddH2O to prepare plantaricin solutions. S. mutans (3.6×10^3 CFU/ml) and C. albicans (3.1×10^1 CFU/ml) from 1 representative S-ECC child were selected and treated with the plantaricin with a range of concentration (0-400 μg/ml). The mixtures of plantaricin with S. mutans or C. albicans were grown for 24 hours in TSBYE with 1% glucose in 96-well plates. Clear culture after 24 hours' incubation indicated no growth of microorganisms. Therefore, the minimal inhibition concentration (MIC) of plantaricin-149 was defined as the lowest concentration that inhibited the growth of S. mutans and C. albicans.
(§2) S. mutans (3.6×10^3 CFU/ml) and C. albicans (3.1×10^1 CFU/ml) were treated by the plantaricin ranging from 0-400 ng/ml respectively, and grew for 24 h in 1% glucose condition. The MIC of plantaricin was 400 ng/ml for S. mutans and 200 ng/ml for C. albicans. The clear culture was plated and incubated for additional 48 hours.

[2] = test system: S. mutans from 1 representative S-ECC child; test: Inhibition of S. mutans clinical isolate by plantaricin (MIC); assay type: cell-based, Streptococcus mutans; conditions: clear culture plated, additional 48 hours
Protocol: as §1, §2

YSLQMGATAIKQVKKLFKKKGG [plantaricin]
nature of inhibitory effect on C. albicans [1]: fungistatic | nature of inhibitory effect on S. mutans [2]: bacteriostatic
